Patent US20150065556A1, “THERAPEUTIC TARGETS FOR MITOCHONDRIAL DISORDERS” (Whitehead Institute for Biomedical Research, priority 2013, published 2015)
“Also recorded” adds a separate entry of the source.

Experiments:
KBM7 cells [1] = experiment: Viability/proliferation of wild type and ATPIF1 null KBM7 cells treated with mitochondrial poisons (7-AAD, FACS); format: cell-based, human; conditions: for resistance of ATPIF1 null KBM7 cells to the poison: viability four days later, FIG. 1C-D, FIG. 2; for viability of ATPIF1 KO vs WT KBM7 cells in response to ETC inhibitors: 7AAD, FIG. 8A
Description: In order to identify potential drug targets for treatment of mitochondrial disorders, we decided to use inhibitors of oxidative phosphorylation (OXPHOS) to model mitochondrial diseases and search for genes, loss-of-function of which can confer resistance to mitochondrial dysfunction caused by the poison. To that end, we explored use of a screening platform based on gene inactivation in human cells using insertional mutagenesis that has recently been developed using the KBM7 CML cell line, which is haploid for all chromosomes except chromosome 8 (5). In this system, insertional mutagenesis is accomplished using a gene trap vector. […]
For the viability assays described in this Example and Example 2, 200,000 cells were used for each sample. Cells were treated with the desired concentration of drug and viability was assessed four days later using 7-AAD and FACS analysis.
(§1) Suspension cells were kept on ice, then spun at 4000 rpm for 5 minutes at 4° C. in a table-top microcentrifuge, supernatant aspirated, cells washed once with ice-cold PBS, resuspended in ice-cold PBS with 2 ug/mL 7-AAD viability dye, incubated for 5 minutes on ice, and analyzed by FACS. For adherent cells, the overlying media and PBS used for pre-trypsinization washes was collected and combined with the suspension of trypsinized cells to gather any dead cells that may have detached into the media. The cell suspensions were kept on ice, spun at 1500 rpm for 5 minutes at 4° C. in a swinging bucket centrifuge, supernatant aspirated, cells washed once with ice-cold PBS, resuspended in ice-cold PBS with 2 ug/mL 7-AAD viability dye, incubated for 5 minutes on ice, and analyzed by FACS. Viability was assessed by 7-AAD exclusion. For HeLa, SH-SY5Y, and Malme-3M cells, 500-2,000 cells were seeded per well of white, clear-bottom 96-well plates (Greiner Bio-One), treated with drugs, and then analyzed using CellTiter-Glo according to the manufacturer's instructions (Promega). For primary hepatocytes, 100,000 cells were seeded per well of a 24-well TPP plate (Light Labs), treated with antimycin, and then analyzed using CellTiter-Glo.

KBM7 cells [2] = experiment: ddI-induced mtDNA depletion in WT and IF1 KO KBM7 cells (proliferation, mtDNA copy number, ATPIF1 protein); format: cell-based, human
Description: mtDNA was extracted using a QiaAmp DNA Mini Kit (Qiagen) and primers specific to the mitochondrial gene ND1 and the nuclear gene Actb were used in conjunction with a SyBr Green Kit (AB) according to the manufacturer's instructions. The ratio of ND1 copies to Actb copies was used to assess the relative mtDNA/nuclear DNA copy numbers between different samples. In some experiments primers targeting the mitochondrial gene ND1 and the nuclear gene RUNX2 were used to assess mtDNA copy number by normalizing ct values of ND1 to those of RUNX2: ND1_F, CCCTAAAACCCGCCACATCT (SEQ ID NO. 14); ND1_R, GAGCGATGGTGAGAGCTAAGGT (SEQ ID NO. 15); RUNX2_F, CGCATTCCTCATCCCAGTATG (SEQ ID NO. 16); RUNX2_R, AAAGGACTTGGTGCAGAGTTCAG (SEQ ID NO. 17). Relative differences between samples were determined using the comparative Ct method.
KBM7 cells were cultured in IMDM supplemented with 10% IFS and penicillin/streptomycin, except for studies using tigecycline in which they were cultured in RPMI-1640. SH-SY5Y, HeLa, Malme-3M cells were cultured in DMEM supplemented with 10% FBS and penicillin/streptomycin. HeLa WT, HeLa ρ^0, and KBM7 cells used for ddI experiments were grown in DMEM supplemented with 10% FBS, penicillin/streptomycin, and 100 μg/mL uridine. Primary hepatocytes were cultured in Medium 199 supplemented with 10% FBS, penicillin/streptomycin, and GlutaMAX. KBM7, HeLa WT, and HeLa ρ^0 cells stably overexpressing ATPIF1 (WT or E55A) were generated via infection with retroviruses and selected with blasticidin (10 μg/mL) for three days. Malme-3M cells stably overexpressing RAP2A or ATPIF1 were generated by infection with lentiviruses expressing the corresponding cDNAs, followed by selection with puromycin (2 μg/mL) for three days. KBM7, SH-SY5Y, and HeLa cells expressing shLuc or shATPIF1 were generated by infection with lentiviruses expressing the corresponding shRNAs. All cells were infected with spin-infection using a 30 minute spin at 2,250 rpm in media containing polybrene (4 μg/mL), followed by selection one day later.
Failure to maintain proper amounts of the mitochondrial genome is a distinctive feature of a class of severe respiratory chain disorders known as mtDNA depletion syndromes (Lee and Sokol, 2007). Because of our interest in ATPIF1 inhibition as a potential strategy for ameliorating severe ETC dysfunction, we asked if loss of ATPIF1 alone was sufficient to improve cell viability during progressive mtDNA depletion. To do this, we exposed WT and IF1 KO KBM7 cells for 50 days to the drug 2′,3′-dideoxyinosine (ddI), an inhibitor of mtDNA replication, which depletes cells of their mtDNA (Lewis et al., 2003; Walker et al., 2002).

COX1 mutant cells = experiment: MMP and viability of cybrid cells with mtDNA from a patient with a deficiency in COX1; format: cell-based, human; conditions: FIG. 7E
Description: (§2) 200,000 cells were stained with 25 nM TMRM dye (Invitrogen) in parent media of cells. In the case of adherent cells, 10 uM verapamil (Sigma-Aldrich) was added to help retention of the dye. For suspension cells, the incubation of the dye was done for 30 minutes at 37° C., whereas for adherent cells, the incubation was done for 1 hour at 37° C. Suspension cells were kept on ice, then spun at 4000 rpm for 5 minutes at 4° C. in a table-top microcentrifuge, supernatant aspirated, cells washed once with ice-cold PBS, resuspended in ice-cold PBS with 2 ug/mL 7-AAD viability dye, incubated for 5 minutes on ice, and analyzed by FACS. Only 7-AAD negative live cells were analyzed. Adherent cells were first trypsinized, kept on ice, spun at 4000 rpm for 5 minutes at 4° C. in a table-top microcentrifuge, supernatant aspirated, cells washed once with ice-cold PBS, resuspended in ice-cold PBS with 2 ug/mL 7-AAD viability dye, incubated for 5 minutes on ice, and analyzed by FACS. Only 7-AAD negative live cells were analyzed.
(§3) Suspension cells were kept on ice, then spun at 4000 rpm for 5 minutes at 4° C. in a table-top microcentrifuge, supernatant aspirated, cells washed once with ice-cold PBS, resuspended in ice-cold PBS with 2 ug/mL 7-AAD viability dye, incubated for 5 minutes on ice, and analyzed by FACS. […] Viability was assessed by 7-AAD exclusion. […]

KBM7 cells [3] = experiment: Mitochondrial membrane potential (TMRM staining, FACS) in WT and ATPIF1 KO KBM7 cells; format: cell-based, human; conditions: for rescue by loss of ATPIF1 of the loss of mitochondrial membrane potential caused by the poison: FIG. 4, TMRM
Description: Membrane potential was assessed using tetramethyl rhodamine methyl ester (TMRM). For the TMRM time course: 200,000 cells were used for each time point. Cells were treated with 121 uM antimycin and incubated in 25 nM TMRM (final concentration) in IMDM 20 minutes from the end of their time point at 37° C. and then analyzed by FACS analysis. Dead cells were excluded using 7-AAD.
as §2
(§4) FACS assays. For measurements of ΔΨm, 100,000 cells were incubated with TMRM (25 nM) and the indicated amounts of drugs for the indicated amounts of time before collection. For measurements of mitochondrial mass, 100,000 cells were incubated with MitoTracker Green FM (50 nM) for one hour. For primary hepatocytes, cells were assayed in suspension immediately after harvest from the liver and incubated with verapamil (20 μM) to facilitate retention of TMRM and MitoTracker Green FM signals. Afterwards, cells were collected by centrifugation, washed once with PBS, and resuspended in PBS with 7-AAD (2 μg/mL) for analysis. KBM7 cells and primary hepatocytes were centrifuged at 2000 rpm for 5 minutes and 500 rpm for 5 minutes at 4° C., respectively.

KBM7 cells [4] = experiment: Cellular ATP (CellTiterGlo) in WT and ATPIF1 KO KBM7 cells; format: cell-based, human
Description: (§5) Equal numbers of cells were plated and ATP was determined using a CellTiterGlo assay (Promega) according to the manufacturer's instructions.

[5] = test system: cybrid cells having mtDNA derived from a normal (WT) subject; experiment: MMP and viability of cybrid cells with mtDNA from a normal (WT) subject; format: cell-based, human; conditions: FIG. 7E
Description: as §2, §3

KBM7 cells [6] = experiment: Metabolite profiling of WT and IF1 KO KBM7 cells after antimycin treatment; format: cell-based, human; conditions: after 1 hour of antimycin treatment; FIG. 7D as printed
Description: 4 million KBM7 cells were centrifuged at 1500 rpm for 4 minutes at 4° C. in a swinging bucket centrifuge after the desired drug treatments. The supernatant was decanted and the cell pellet kept on dry ice. Each cell pellet was washed twice with ice-cold PBS. 3 mL of 80% ice-cold MeOH was then added to each pellet and the pellet vigorously resuspended. Samples were then submitted to the Broad Institute Metabolomics Platform for further processing and analysis.

primary hepatocytes = experiment: ATP, ΔΨm and viability of WT and ATPIF1−/− primary hepatocytes treated with antimycin; format: cell-based, mice
Description: as §5, §1
as §4, with “KBM7 cells and primary hepatocytes were centrifuged at 2000 rpm for 5 minutes and 500 rpm for 5 minutes at 4° C., respectively.” left out

Malme-3M cells = experiment: Viability of Malme-3M cells overexpressing ATPIF1 treated with antimycin (CellTiter-Glo); format: cell-based; conditions: antimycin for 4 days; FIG. 7G
Description: as §1, with “CellTiter-Glo. […]” for “CellTiter-Glo.”

[7] = initial days of ddI treatment (Early)

N#CC(C#N)=NNc1ccc(OC(F)(F)F)cc1 [FCCP, carbonylcyanide p-trifluoromethoxyphenylhydrazone]
resistance of ATPIF1 null KBM7 cells to the poison (KBM7 cells [1]; 7-AAD): resistant

C[n+]1ccc(-c2ccccc2)cc1 [MPP+, 1-methyl-4-phenylpyridinium]
viability of ATPIF1 KO vs WT KBM7 cells in response to ETC inhibitors (KBM7 cells [1]): cells lacking ATPIF1 have increased viability as compared to wild type cells

O=C(CC(=O)C(F)(F)F)c1cccs1 [TTFA]
resistance of ATPIF1 null KBM7 cells to the poison (KBM7 cells [1]; 7-AAD): resistant

OC[C@@H]1CC[C@H](n2cnc3c(O)ncnc32)O1 [ddI, 2′,3′-dideoxyinosine]
mtDNA of WT and ATPIF1_KO KBM7 cells (KBM7 cells [2]; by about day 25 of ddI treatment (Middle)): trace amounts of mtDNA | proliferation of ATPIF1_KO vs WT KBM7 cells (KBM7 cells [2]; ddI, Middle (days 19-34)): significantly faster rate of proliferation | cell proliferation of WT and ATPIF1_KO KBM7 cells (KBM7 cells [2]; [7]): decrease in cell proliferation | mtDNA copy number of WT and ATPIF1_KO KBM7 cells (KBM7 cells [2]; [7]): immediate decrease in mtDNA copy number | ATPIF1 protein levels and activity of WT KBM7 cells (KBM7 cells [2]; long-term exposure to ddI, FIG. 8E): greatly reduced ATPIF1 protein levels and activity

CC[C@H]1/C=C/C=C/C[C@@H](C)[C@H](O)[C@@](C)(O)C(=O)[C@@H](C)[C@H](O)[C@@H](C)C(=O)[C@@H](C)[C@H](O)[C@@H](C)/C=C/C(=O)O[C@@H]2[C@H](C)[C@H](CC1)O[C@]1(CC[C@H](C)[C@H](C[C@@H](C)O)O1)[C@H]2C [oligomycin]
survival of antimycin-treated IF1 KO KBM7 cells on addition of oligomycin (KBM7 cells [1]; oligomycin added to antimycin, 7-AAD, FIG. 7D): decreased survival | MMP of cells having patient-derived (COX1 deficient) mtDNA (COX1 mutant cells): dramatic decrease in MMP | viability of cells having patient-derived (COX1 deficient) mtDNA (COX1 mutant cells): kills the cells having patient-derived mtDNA | rescue by loss of ATPIF1 of the loss of mitochondrial membrane potential caused by the poison (KBM7 cells [3]): not rescued | MMP (ΔΨm) of antimycin-treated IF1 KO KBM7 cells on addition of oligomycin (KBM7 cells [3]; oligomycin added to antimycin): completely prevents IF1 KO cells from rescuing their MMP; also recorded: decreased ΔΨm | ATP of antimycin-treated IF1 KO KBM7 cells on addition of oligomycin (KBM7 cells [4]; oligomycin added to antimycin): completely prevents IF1 KO cells from rescuing their MMP and using ATP; also recorded: increased ATP levels | MMP and viability of cells having mtDNA derived from healthy subjects (WT) [5]: not cells having mtDNA derived from healthy subjects

C/C=C(\C)[C@H](O)[C@H](C)/C=C(C)/C=C/C/C(C)=C/Cc1nc(OC)c(OC)c(O)c1C [piercidin A, Piericidin A]
viability of ATPIF1 KO vs WT KBM7 cells in response to ETC inhibitors (KBM7 cells [1]): cells lacking ATPIF1 have increased viability as compared to wild type cells | resistance of ATPIF1 null KBM7 cells to the poison (KBM7 cells [1]; 7-AAD): resistant

CN(C)c1cc(NC(=O)CNC(C)(C)C)c(O)c2c1C[C@H]1C[C@H]3[C@H](N(C)C)C(O)=C(C(N)=O)C(=O)[C@@]3(O)C(O)=C1C2=O [tigecycline]
viability of ATPIF1 KO vs WT KBM7 cells in response to ETC inhibitors (KBM7 cells [1]): cells lacking ATPIF1 have increased viability as compared to wild type cells

antimycin A
proliferation of clone 18 (ATPIF1 null) KBM7 cells (KBM7 cells [1]; antimycin A 121 μm, FIG. 1D): clone 18 cells continue proliferating | proliferation of wild type KBM7 cells (KBM7 cells [1]; antimycin A 121 μm, FIG. 1D): wild type cells cease proliferating | resistance of ATPIF1 null KBM7 cells to the poison (KBM7 cells [1]; 7-AAD): marked resistance | glycolytic metabolites (DHAP, glyceraldehyde 3P, F6P), IF1 KO vs WT KBM7 cells (KBM7 cells [6]): more depletion of glycolytic metabolites | cellular ATP, ATPIF1−/− vs WT hepatocytes (primary hepatocytes; antimycin 0.625 μM for 1.5 hours, FIG. 11B): greater decrease in cellular ATP | cell viability, ATPIF1−/− vs WT hepatocytes (primary hepatocytes; antimycin 1.25 μM for 2 days, FIG. 11D): increased cell viability relative to WT hepatocytes | ΔΨm, ATPIF1−/− vs WT hepatocytes (primary hepatocytes; antimycin 10 μM for 1.5 hours, FIG. 11C): greater increase in ΔΨm | rescue by loss of ATPIF1 of the loss of mitochondrial membrane potential caused by the poison (KBM7 cells [3]): rescued (in part) | MMP in IF1 KO KBM7 cells (KBM7 cells [3]; antimycin exposure, FIG. 7B): significant recovery in MMP after loss of MMP | recovery of MMP in WT KBM7 cells (KBM7 cells [3]; antimycin exposure, FIG. 7B): WT cells did not | ATP levels of ATPIF1 null vs WT KBM7 cells following antimycin treatment (KBM7 cells [4]; FIG. 3A): significantly lower levels of initial ATP compared to WT cells | ATP levels in IF1 KO KBM7 cells (KBM7 cells [4]; antimycin exposure, FIG. 7B): decreased significantly | ATP levels in WT KBM7 cells (KBM7 cells [4]; antimycin exposure, FIG. 7B): not in WT cells | sensitivity of Malme-3M cells overexpressing ATPIF1 (Malme-3M cells): increased their sensitivity to antimycin
